The term inhibition denotes the share of the control response that was lost under treatment. Higher therefore signals a response far below the control. By pIC50 is commonly meant −log10 of the IC50, conventionally taken in molar units.

Here are results for 26 compounds from patent US10358436B2, “Kinase inhibitors and method of treating cancer” (University Health Network, priority 2010, dated 2019).

pIC50: −log10 of the molar value. Structures can show the parent of a compound that is named as a salt.

Chain of Aurora A (O14965 whole entry): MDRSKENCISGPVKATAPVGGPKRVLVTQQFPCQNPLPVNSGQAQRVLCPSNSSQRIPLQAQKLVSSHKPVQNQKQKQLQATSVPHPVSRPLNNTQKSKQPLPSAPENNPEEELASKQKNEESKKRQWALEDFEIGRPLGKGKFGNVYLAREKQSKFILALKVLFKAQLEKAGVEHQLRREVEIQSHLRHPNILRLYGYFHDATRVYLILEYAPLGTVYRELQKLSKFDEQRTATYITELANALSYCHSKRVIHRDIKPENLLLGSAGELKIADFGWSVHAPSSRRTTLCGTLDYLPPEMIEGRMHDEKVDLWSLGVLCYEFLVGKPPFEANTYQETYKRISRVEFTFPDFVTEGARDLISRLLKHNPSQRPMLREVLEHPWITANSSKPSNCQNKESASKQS

This test concerns the target Aurora A (Homo sapiens (Human), UniProt O14965). The experiment in a line: Aurora A inhibition assay (Z-Lyte). In kind it is biochemical.
Compound `COc1ccc2c(c1)[C@]1(C[C@H]1c1ccc3c(/C=C/c4ccc(N5CCN(C(C)C)CC5)cc4)n[nH]c3c1)C(=O)N2` (relative stereo) [Example A189, (1R*,2S*)-(E)-2-(3-(4-(4-isopropylpiperazin-1-yl)styryl)-1H-indazol-6-yl)-5′-methoxyspiro[cyclopropane-1,3′-indolin]-2′-one 2,2,2-trifluoroacetate] yielded an inhibition at 1 µM of over 50%.
The same measure, in the same setting: then `CCN1Cc2ccc(/C=C/c3n[nH]c4cc([C@@H]5C[C@@]56C(=O)Nc5ccc(OC)cc56)ccc34)cc2C1` (relative stereo) [Example A190, (1R*,2S*)-2-(3-((E)-2-(2-ethylisoindolin-5-yl)vinyl)-1H-indazol-6-yl)-5′-methoxyspiro[cyclopropane-1,3′-indolin]-2′-one 2,2,2-trifluoroacetate], with over 50%.
With `Cc1ccc2c(c1)[C@]1(C[C@H]1c1ccc3c(/C=C/c4ccc(CN5CCOCC5)cc4)n[nH]c3c1)C(=O)N2` (relative stereo) [Example A196, (1R*,2S*)-(E)-5′-methyl-2-(3-(4-(morpholinomethyl)styryl)-1H-indazol-6-yl)spiro[cyclopropane-1,3′-indolin]-2′-one 2,2,2-trifluoroacetate], the inhibition at 1 µM was over 50%.
Same read-out and setting: then `O=C1Nc2ccc(F)cc2[C@]12C[C@H]2c1ccc2c(/C=C/c3ccc(N4CCOCC4)nc3)n[nH]c2c1` (relative stereo) [Example A207, (1R*,2S*)-5′-fluoro-2-(3-((E)-2-(6-morpholinopyridin-3-yl)vinyl)-1H-indazol-6-yl)spiro[cyclopropane-1,3′-indolin]-2′-one 2,2,2-trifluoroacetate], with over 50%.
Same read-out and setting: next, `CN(C)Cc1ccc(/C=C/c2n[nH]c3cc([C@@H]4C[C@@]45C(=O)Nc4ccc(F)cc45)ccc23)cc1` (relative stereo) [Example A208, (1R*,2S*)-(E)-2-(3-(4-((dimethylamino)methyl)styryl)-1H-indazol-6-yl)-5′-flurorospiro[cyclopropane-1,3′-indolin]-2′-one 2,2,2-trifluoroacetate]: over 50%; `CN1CCN(c2ccc(-c3n[nH]c4cc([C@@H]5C[C@@]56C(=O)Nc5ccc(OC(F)F)cc56)ccc34)cn2)CC1` (relative stereo) [Example A209, 1R*,2S*1-5′-(difluoromethoxy)-2-(3-(6-(4-methylpiperazine-1-yl)pyridine-3-yl)-1H-indazol-6-yl) spiro[cyclopropane-1,3′-indolin]-2′-one 2,2,2-trifluoroacetate]: under 50%; `CN1CCN(c2ccc(-c3n[nH]c4cc([C@@H]5C[C@@]56C(=O)Nc5ccc(F)cc56)ccc34)cn2)CC1` (relative stereo) [Example A210, 1R*,2S*1-5′-fluoro-2-(3-(6-(4-methylpiperazine-1-yl)pyridine-3-yl)-1H-indazol-6-yl)-spiro[cyclopropane-1,3′-indolin]-2′-one]: over 50%.
On the same count and under the same terms, next, `COc1ccc2c(c1)[C@]1(C[C@H]1c1ccc3c(/C=C/c4ccc(N5CCOCC5)nc4)n[nH]c3c1)C(=O)N2` (relative stereo) [Example A213, (1R*,2S*)-5′-methoxy-2-(3-((E)-2-(6-morpholinopyridin-3-yl)vinyl)-1H-indazol-6-yl)spiro[cyclopropane-1,3′-indolin]-2′-one 2,2,2-trifluoroacetate]: over 50%; `CN(C)Cc1ccc(/C=C/c2n[nH]c3cc([C@@H]4C[C@@]45C(=O)Nc4ccc(OC(F)F)cc45)ccc23)cc1` (relative stereo) [Example A214, (1R*,2S*)-(E)-5′-difluoromethoxy-2-(3-(4-((dimethylamino)methyl)styryl)-1H-indazol-6-yl)spiro[cyclopropane-1,3′-indolin]-2′-one 2,2,2-trifluoroacetate]: over 50%.
For the compound `COc1ccc2c(c1)[C@]1(C[C@H]1c1ccc3c(/C=C/c4cc(F)c(CN(C)C)c(F)c4)n[nH]c3c1)C(=O)N2` (relative stereo) [Example A215, (1R*,2S*)-(E)-2-(3-(4-((dimethylamino)methyl)-3,5-difluorostyryl)-1H-indazol-6-yl)-5′-methoxyspiro[cyclopropane-1,3′-indolin]-2′-one 2,2,2-trifluoro acetate], the pIC50 was over 7.00.
`COc1ccc2c(c1)[C@]1(C[C@H]1c1ccc3c(/C=C/c4cc(F)c(CN5CCOCC5)c(F)c4)n[nH]c3c1)C(=O)N2` (relative stereo) [Example A217, (1R*,2S*)-(E)-2-(3-(3,5-difluoro-4-(morpholinomethyl)styryl-1H-indazol-6-yl)-5′-methoxyspiro[cyclopropane-1,3′-indolin]-2′-one 2,2,2-trifluoroacetate] returned an inhibition at 1 µM of over 50%.
With `O=C1Nc2ccc(F)cc2[C@]12C[C@H]2c1ccc2c(/C=C/c3ccc(CN4CCOCC4)cc3)n[nH]c2c1` (relative stereo) [Example A219, 1R*,2S*)-(E)-5′-fluoro-2-(3-(4-(morpholinomethyl)styryl-1H-indazol-6-yl)spiro[cyclopropane-1,3′-indolin]-2′-one 2,2,2-trifluoroacetate], the inhibition at 1 µM was over 50%.
Compound `COc1ccc2c(c1)C1(CC1c1ccc3c(I)n[nH]c3c1)C(=O)N2` (single isomer, unassigned) [Example A6, (1R*,2S*)- and (1R*,2R*)-2-(3-iodo-1H-indazol-6-yl)-5′-methoxyspiro-[cyclopropane-1,3′-indolin]-2′-one] returned an inhibition at 1 µM of under 50%.
Still for that read-out and setting: then `COc1ccc2c(c1)[C@]1(CC1c1ccc3c(/C=C/c4ccc(N5CCN(C)CC5)nc4)n[nH]c3c1)C(=O)N2` (single isomer, unassigned) [Example A31, (1R*,2S*)-5′-methoxy-2-(3-((E)-2-(6-(4-methylpiperazin-1-yl)pyridin-3-yl)vinyl)-1H-indazol-6-yl)spiro[cyclopropane-1,3′-indolin]-2′-one], with over 50%; and `COc1ccc2c(c1)[C@@]1(C[C@@H]1c1ccc3c(-c4ccc(N5CCN(C)CC5)nc4)n[nH]c3c1)C(=O)N2` (stereo in doubt) [Example A16, (1S,2R)-5′-methoxy-2-(3-(6-(4-methylpiperazin-1-yl)pyridin-3-yl)-1H-indazol-6-yl)spiro[cyclopropane-1,3′-indolin]-2′-one], with under 50%; and `COc1ccc2c(c1)[C@]1(C[C@H]1c1ccc3c(I)n[nH]c3c1)C(=O)N2` [Example A7, (1R,2S)-2-(3-iodo-1H-indazol-6-yl)-5′-methoxyspiro[cyclopropane-1,3′-indolin]-2′-one], with under 50%.
The same measure, in the same setting: then `O=C1Nc2ccccc2[C@]12C[C@H]2c1ccc2c(I)n[nH]c2c1` [Example A10, (1R,2S)-2-(3-iodo-1H-indazol-6-yl)spiro[cyclopropane-1,3′-indolin]-2′-one], with under 50%; and `COc1ccc2c(c1)[C@@]1(C[C@@H]1c1ccc3c(-c4ccc(N5CCN(C)CC5)nc4)n[nH]c3c1)C(=O)N2` [Example A15, (1S,2R)-5′-methoxy-2-(3-(6-(4-methylpiperazin-1-yl)pyridin-3-yl)-1H-indazol-6-yl)spiro[cyclopropane-1,3′-indolin]-2′-one], with under 50%; and `O=C1Nc2ccccc2[C@]12C[C@H]2c1ccc2c(/C=C/c3cccnc3)n[nH]c2c1` [Example A29, (1R,2S)-2-(3-((E)-2-(pyridin-3-yl)vinyl)-1H-indazol-6-yl)spiro[cyclopropane-1,3′-indolin]-2′-one], with over 50%.
In turn, `O=C1Nc2ccccc2[C@@]12C[C@@H]2c1ccc2c(/C=C/c3cccnc3)n[nH]c2c1` [Example A30, (1S,2R)-2-(3-((E)-2-(pyridin-3-yl)vinyl)-1H-indazol-6-yl)spiro[cyclopropane-1,3′-indolin]-2′-one] gave an inhibition at 1 µM of over 50%.
For `COc1ccc2c(c1)[C@@]1(C[C@@H]1c1ccc3c(-c4ccc(N5CCNCC5)cc4)n[nH]c3c1)C(=O)N2` [Example A50, (1S,2R)-5′-methoxy-2-(3-(4-(piperazin-1-yl)phenyl)-1H-indazol-6-yl)spiro[cyclopropane-1,3′-indolin]-2′-one 2,2,2-trifluoroacetate], the inhibition at 1 µM was under 50%.
With `O=C1Nc2ccccc2[C@]12C[C@H]2c1ccc2c(/C=C/c3ccc(CN4CCCCC4)cc3)n[nH]c2c1` [Example A58, (1R,2S)-(E)-2-(3-(4-(piperidin-1-ylmethyl)styryl)-1H-indazol-6-yl)spiro[cyclopropane-1,3′-indolin]-2′-one 2,2,2-trifluoroacetate], the inhibition at 1 µM was over 50%.
`COc1ccc2c(c1)[C@]1(C[C@H]1c1ccc3c(/C=C/c4ccc(CN5CCCCC5)cc4)n[nH]c3c1)C(=O)N2` [Example A59, (1R,2S)-(E)-5′-methoxy-2-(3-(4-(piperidin-1-ylmethyl)styryl)-1H-indazol-6-yl)spiro[cyclopropane-1,3′-indolin]-2′-one 2,2,2-trifluoroacetate salt] gave an inhibition at 1 µM of over 50%.
On the same count and under the same terms, then `O=C1Nc2ccccc2[C@]12C[C@H]2c1ccc2c(/C=C/c3ccc(CN4CCCC4)cc3)n[nH]c2c1` [Example A61, (1R,2S)-(E)-2-(3-(4-(pyrolidin-1-ylmethyl)styryl)-1H-indazol-6-yl)spiro[cyclopropane-1,3′-indolin]-2′-one 2,2,2-trifluoroacetate], with over 50%; and `COc1ccc2c(c1)[C@]1(C[C@H]1c1ccc3c(/C=C/c4ccc5c(c4)CN(C)CC5)n[nH]c3c1)C(=O)N2` [Example A64, (1R,2S)-5′-methoxy-2-(3-((E)-2-(2-methyl-1,2,3,4-tetrahydroisoquinolin-7-yl)vinyl)-1H-indazol-6-yl)spiro[cyclopropane-1,3′-indolin]-2′-one 2,2,2-trifluoroacetate salt], with over 50%.
On the same count and under the same terms, then `CN1CCc2ccc(/C=C/c3n[nH]c4cc([C@@H]5C[C@@]56C(=O)Nc5ccccc56)ccc34)cc2C1` [Example A65, (1R,2S)-2-(3-((E)-2-(2-methyl-1,2,3,4-tetrahydroisoquinolin-7-yl)vinyl)-1H-indazol-6-yl)spiro[cyclopropane-1,3′-indolin]-2′-one 2,2,2-trifluoroacetate salt], with over 50%.
